Experimental data taken from patent US7462600B2, “Macrolides” (Pfizer Inc, priority 2004, dated 2008).
Converted amounts (≈) assume the structure as drawn.

What was measured:
Type in all cases: cell-based
[1] = tested on: Streptococcus pneumoniae 1016; test: MIC, microtiter broth dilution (NCCLS M100-S14), S. pneumoniae 1016 (susceptible); conditions: S. pneumoniae 1016 (susceptible)
Procedure, shortened: (§1)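 NCCLS M100-S14 rules govern how the microdilution MICs are interpreted. Each compound starts as a 40 mg/ml solution in DMSO before dilution.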

[2] = tested on: Haemophilus influenzae 1218; test: MIC, microtiter broth dilution (NCCLS M100-S14), H. influenzae 1218 (susceptible); conditions: H. influenzae 1218 (susceptible)
Procedure, shortened: as §1

[3] = tested on: Streptococcus pneumoniae 1175; conditions: S. pneumoniae 1175 (mefA); microtiter broth dilution
Procedure, shortened: as §1

[4] = tested on: Streptococcus pneumoniae 1095; conditions: S. pneumoniae 1095 (ermB); microtiter broth dilution
Procedure, shortened: as §1

[5] = tested on: Streptococcus pyogenes 1079; test: MIC, microtiter broth dilution (NCCLS M100-S14), S. pyogenes 1079 (ermB); conditions: S. pyogenes 1079 (ermB)
Procedure, shortened: as §1

| SMILES | MIC S. pneumo. 1016 [1] [µg/mL] | MIC H. influenzae 1218 [2] [µg/mL] | MIC S. pneumo. 1175 [3] [µg/mL] | MIC S. pneumo. 1095 [4] [µg/mL] | MIC S. pyogenes 1079 [5] [µg/mL] |
| --- | --- | --- | --- | --- | --- |
| CCC1OC(=O)C(C)C(=O)C(C)C(OC2OC(C)CC(N(C)C)C2O)C(C)(OC)CC(C)C(=O)C(C)C2N(CC3CCCN3Cc3ccc(OC)nc3)C(=O)OC12C (stereo not shown) [12.03] | <0.06 | 4 (≈ 4.9 µM) | 0.5 (≈ 0.612 µM) | >64.00 | >64.00 |
| CCC1OC(=O)C(C)C(=O)C(C)C(OC2OC(C)CC(N(C)C)C2O)C(C)(OC)CC(C)C(=O)C(C)C2N(CC3CCCN3Cc3ccno3)C(=O)OC12C (stereo not shown) [12.04] | <0.06 | 2 (≈ 2.57 µM) | 1 (≈ 1.29 µM) | 4 (≈ 5.15 µM) | >64.00 |
| CCC1OC(=O)C(C)C(=O)C(C)C(OC2OC(C)CC(N(C)C)C2O)C(C)(OC)CC(C)C(=O)C(C)C2N(CC3CCCN3C(=O)c3cnc4ccccc4c3)C(=O)OC12C (stereo not shown) [12.05] | <0.06 | 4 (≈ 4.7 µM) | 1 (≈ 1.18 µM) | 1 (≈ 1.18 µM) | >64.00 |
| CCC1OC(=O)C(C)C(=O)C(C)C(OC2OC(C)CC(N(C)C)C2O)C(C)(OC)CC(C)C(=O)C(C)C2N(CC3CCCN3C(=O)c3ccc4ncccc4c3)C(=O)OC12C (stereo not shown) [12.06] | <0.06 | 2 (≈ 2.35 µM) | 1 (≈ 1.18 µM) | 0.25 (≈ 0.294 µM) | >64.00 |
| CCC1OC(=O)C(C)C(=O)C(C)C(OC2OC(C)CC(N(C)C)C2O)C(C)(OC)CC(C)C(=O)C(C)C2N(CC3CCCN3C(=O)c3ccnc4ccccc34)C(=O)OC12C (stereo not shown) [12.08] | <0.06 | 16 (≈ 18.8 µM) | 2 (≈ 2.35 µM) | 1 (≈ 1.18 µM) | >64.00 |
| CCC1OC(=O)C(C)C(=O)C(C)C(OC2OC(C)CC(N(C)C)C2O)C(C)(OC)CC(C)C(=O)C(C)C2N(CC3CCCN3C(=O)c3cc4ccccc4cn3)C(=O)OC12C (stereo not shown) [12.09] | <0.06 | 2 (≈ 2.35 µM) | 1 (≈ 1.18 µM) | 1 (≈ 1.18 µM) | >64.00 |
| CCC1OC(=O)C(C)C(=O)C(C)C(OC2OC(C)CC(N(C)C)C2O)C(C)(OC)CC(C)C(=O)C(C)C2N(CC3CCCN3C(=O)c3cccc4cccnc34)C(=O)OC12C (stereo not shown) [12.10] | <0.06 | 8 (≈ 9.4 µM) | 2 (≈ 2.35 µM) | 0.5 (≈ 0.588 µM) | >64.00 |
| CCC1OC(=O)C(C)C(=O)C(C)C(OC2OC(C)CC(N(C)C)C2O)C(C)(OC)CC(C)C(=O)C(C)C2N(CC3CCCN3C(=O)c3ccc4cccnc4c3)C(=O)OC12C (stereo not shown) [12.12] | <0.06 | 2 (≈ 2.35 µM) | 1 (≈ 1.18 µM) | <0.06 | >64.00 |
| CCC1OC(=O)C(C)C(=O)C(C)C(OC2OC(C)CC(N(C)C)C2O)C(C)(OC)CC(C)C(=O)C(C)C2N(CC3CCN(Cc4c[nH]c5ncccc45)C3)C(=O)OC12C (stereo not shown) [13.01] | <0.06 | 1 (≈ 1.21 µM) | 1 (≈ 1.21 µM) | 0.25 (≈ 0.303 µM) | >64.00 |
| CCC1OC(=O)C(C)C(=O)C(C)C(OC2OC(C)CC(N(C)C)C2O)C(C)(OC)CC(C)C(=O)C(C)C2N(CC3CCN(Cc4c[nH]c5cc(=O)[nH]cc45)C3)C(=O)OC12C (stereo not shown) [13.02] | 0.12 (≈ 0.143 µM) | 16 (≈ 19 µM) | 4 (≈ 4.75 µM) | 16 (≈ 19 µM) | 64 (≈ 76 µM) |
| CCC1OC(=O)C(C)C(=O)C(C)C(OC2OC(C)CC(N(C)C)C2O)C(C)(OC)CC(C)C(=O)C(C)C2N(CC3CCN(Cc4c[nH]c5cnccc45)C3)C(=O)OC12C (stereo not shown) [13.03] | <0.06 | 2 (≈ 2.42 µM) | 4 (≈ 4.84 µM) | 1 (≈ 1.21 µM) | >64.00 |
| CCC1OC(=O)C(C)C(=O)C(C)C(OC2OC(C)CC(N(C)C)C2O)C(C)(OC)CC(C)C(=O)C(C)C2N(CC3CCN(Cc4ccc5cccc(O)c5n4)C3)C(=O)OC12C (stereo not shown) [13.04] | <0.06 | 1 (≈ 1.17 µM) | 0.25 (≈ 0.293 µM) | 1 (≈ 1.17 µM) | 64 (≈ 75 µM) |
| CCC1OC(=O)C(C)C(=O)C(C)C(OC2OC(C)CC(N(C)C)C2O)C(C)(OC)CC(C)C(=O)C(C)C2N(CC3CCN(Cc4ccc(-c5ccccn5)cc4)C3)C(=O)OC12C (stereo not shown) [13.05] | <0.06 | 4 (≈ 4.63 µM) | 0.5 (≈ 0.579 µM) | 16 (≈ 18.5 µM) | >64.00 |
| CCC1OC(=O)C(C)C(=O)C(C)C(OC2OC(C)CC(N(C)C)C2O)C(C)(OC)CC(C)C(=O)C(C)C2N(CC3CCN(Cc4ccno4)C3)C(=O)OC12C (stereo not shown) [13.06] | <0.06 | 2 (≈ 2.57 µM) | 0.5 (≈ 0.644 µM) | >64.00 | >64.00 |
| CCC1OC(=O)C(C)C(=O)C(C)C(OC2OC(C)CC(N(C)C)C2O)C(C)(OC)CC(C)C(=O)C(C)C2N(CC3CCN(Cc4c[nH]nn4)C3)C(=O)OC12C (stereo not shown) [13.07] | <0.06 | 2 (≈ 2.57 µM) | 4 (≈ 5.15 µM) | >64.00 | >64.00 |
| CCC1OC(=O)C(C)C(=O)C(C)C(OC2OC(C)CC(N(C)C)C2O)C(C)(OC)CC(C)C(=O)C(C)C2N(CC3CCN(Cc4c[nH]c(-c5ccccc5)n4)C3)C(=O)OC12C (stereo not shown) [13.08] | <0.06 | 2 (≈ 2.35 µM) | 0.5 (≈ 0.587 µM) | 4 (≈ 4.69 µM) | 64 (≈ 75.1 µM) |
| CCC1OC(=O)C(C)C(=O)C(C)C(OC2OC(C)CC(N(C)C)C2O)C(C)(OC)CC(C)C(=O)C(C)C2N(CC3CCN(C(=O)c4ccc5cnccc5n4)C3)C(=O)OC12C (stereo not shown) [13.09] | <0.06 | 4 (≈ 4.69 µM) | 1 (≈ 1.17 µM) | >64.00 | >64.00 |
| CCC1OC(=O)C(C)C(=O)C(C)C(OC2OC(C)CC(N(C)C)C2O)C(C)(OC)CC(C)C(=O)C(C)C2N(CC3CCN(C(=O)c4cnc5ccccc5c4)C3)C(=O)OC12C (stereo not shown) [13.10] | <0.06 | 4 (≈ 4.7 µM) | 0.25 (≈ 0.294 µM) | >64.00 | >64.00 |
| CCC1OC(=O)C(C)C(=O)C(C)C(OC2OC(C)CC(N(C)C)C2O)C(C)(OC)CC(C)C(=O)C(C)C2N(CC3CCN(C(=O)c4cccc5cccnc45)C3)C(=O)OC12C (stereo not shown) [13.11] | <0.06 | 4 (≈ 4.7 µM) | 4 (≈ 4.7 µM) | 16 (≈ 18.8 µM) | >64.00 |
| CCC1OC(=O)C(C)C(=O)C(C)C(OC2OC(C)CC(N(C)C)C2O)C(C)(OC)CC(C)C(=O)C(C)C2N(CC3CCN(C(=O)c4ccc5ncccc5c4)C3)C(=O)OC12C (stereo not shown) [13.12] | <0.06 | 4 (≈ 4.7 µM) | 0.5 (≈ 0.588 µM) | >64.00 | >64.00 |
| CCC1OC(=O)C(C)C(=O)C(C)C(OC2OC(C)CC(N(C)C)C2O)C(C)(OC)CC(C)C(=O)C(C)C2N(CC3CCN(C(=O)c4cnc5ccccc5n4)C3)C(=O)OC12C (stereo not shown) [13.13] | <0.06 | 16 (≈ 18.8 µM) | 0.5 (≈ 0.587 µM) | >64.00 | >64.00 |
| CCC1OC(=O)C(C)C(=O)C(C)C(OC2OC(C)CC(N(C)C)C2O)C(C)(OC)CC(C)C(=O)C(C)C2N(CC3CCN(C(=O)c4cccc5ncsc45)C3)C(=O)OC12C (stereo not shown) [13.14] | <0.06 | 1 (≈ 1.17 µM) | <0.06 | 2 (≈ 2.33 µM) | >64.00 |
| CCC1OC(=O)C(C)C(=O)C(C)C(OC2OC(C)CC(N(C)C)C2O)C(C)(OC)CC(C)C(=O)C(C)C2N(CC3CCN(C(=O)c4cc5cccnc5[nH]4)C3)C(=O)OC12C (stereo not shown) [13.15] | <0.06 | 4 (≈ 4.76 µM) | 0.12 (≈ 0.143 µM) | 2 (≈ 2.38 µM) | >64.00 |
| CCC1OC(=O)C(C)C(=O)C(C)C(OC2OC(C)CC(N(C)C)C2O)C(C)(OC)CC(C)C(=O)C(C)C2N(CC3CCN(C(=O)c4cc5ccccn5n4)C3)C(=O)OC12C (stereo not shown) [13.16] | <0.06 | 16 (≈ 19 µM) | 1 (≈ 1.19 µM) | >64.00 | >64.00 |
| CCC1OC(=O)C(C)C(=O)C(C)C(OC2OC(C)CC(N(C)C)C2O)C(C)(OC)CC(C)C(=O)C(C)C2N(CC3CCN(C(=O)c4cncc5ccccc45)C3)C(=O)OC12C (stereo not shown) [13.17] | <0.06 | 4 (≈ 4.7 µM) | 0.25 (≈ 0.294 µM) | >64.00 | >64.00 |
| CCC1OC(=O)C(C)C(=O)C(C)C(OC2OC(C)CC(N(C)C)C2O)C(C)(OC)CC(C)C(=O)C(C)C2N(CC3CCN(Cc4cccc5nccnc45)CC3)C(=O)OC12C (stereo not shown) [15.01] | <0.06 | 32 (≈ 37.6 µM) | 0.25 (≈ 0.293 µM) | >64.00 | >64.00 |
